From patent EP0908457B1, “3-(1,2-benzisothiazol- and isoxazol-5-Y1)-2,4(1H,3H)-pyrimidinedione or thione and 3-(1,2-benzisothiazol- and isoxazol-5-y1)-4(3H)-pyrimidinone or thione herbicidal agents” (BASF AKTIENGESELLSCHAFT, priority 1997, dated 1999)

What was measured:
Format in all cases: in vivo
Cyperus iria = test: Preemergence weed control under flooded paddy conditions, CYPIR (Rice Flatsedge); conditions: flooded paddy; for CYPIR herbicidal rating / herbicidal effect rating, CYPIR: rated three to four weeks after treatment; for CYPIR: herbicidal effect rating 0-9, three to four weeks after treatment; as to herbicidal effect rating, CYPIR: meaning of each grade not given here
[1] = test system: Echinochloa oryzoides (Ard.) Fritsch.; test: Preemergence weed control under flooded paddy conditions, ECHORC (Watergrass (Calif.)); conditions: flooded paddy; for ECHORC herbicidal rating / herbicidal effect rating, ECHORC: rated three to four weeks after treatment; for ECHORC: herbicidal effect rating 0-9, three to four weeks after treatment; as to herbicidal effect rating, ECHORC: meaning of each grade not given here
Sagittaria pygmaea, L. = test: Preemergence weed control under flooded paddy conditions, SAGPY (Arrowhead (Pygmaea)); conditions: flooded paddy, rated three to four weeks after treatment; as to herbicidal effect rating, SAGPY: meaning of each grade not given here
[2] = test system: Monochoria vaginalis, Presl.; test: Preemergence weed control under flooded paddy conditions, MOOVA (Monochoria); conditions: flooded paddy; for MOOVA herbicidal rating: preemergence, rated three to four weeks after treatment; for MOOVA: preemergence weeds, herbicidal effect rating 0-9, three to four weeks after treatment
[3] = test system: Cyperus serotinus, Rottb.; test: Preemergence weed control under flooded paddy conditions, CYPSE (Flatsedge); conditions: for CYPSE: herbicidal effect rating 0-9, three to four weeks after treatment; for CYPSE herbicidal rating / herbicidal effect rating, CYPSE: rated three to four weeks after treatment; as to herbicidal effect rating, CYPSE: meaning of each grade not given here
[4] = 0.0620 kg/ha, preemergence weeds
[5] = 0.1250 kg/ha, preemergence weeds
[6] = 0.2500 kg/ha, preemergence weeds
[7] = Rate 0.0320 kg/ha, preemergence
[8] = Rate 0.0620 kg/ha, preemergence
[9] = Rate 0.1250 kg/ha, preemergence
[10] = Rate 0.2500 kg/ha, preemergence
[11] = Rate 0.0320 kg/ha, preemergence weeds
[12] = Rate 0.0620 kg/ha, preemergence weeds
[13] = Rate 0.1250 kg/ha, preemergence weeds
[14] = Rate 0.2500 kg/ha, preemergence weeds

COCC(=O)OCc1nsc2ccc(-n3c(=O)cc(C(F)(F)F)n(C)c3=O)cc12 [Example 495, 2,4(1H,3H)-Pyrimidinedione, 3-[3-(hydroxymethyl)-1,2-benzisothiazol-5-yl]-1-methyl-6-(trifluoromethyl)-, methoxyacetate (ester)]
CYPIR herbicidal rating (Cyperus iria; 0.0320 kg/ha, preemergence): 6.0 | CYPIR herbicidal rating (Cyperus iria; 0.0620 kg/ha, preemergence): 6.0 | CYPIR herbicidal rating (Cyperus iria; 0.1250 kg/ha, preemergence): 7.0 | CYPIR herbicidal rating (Cyperus iria; 0.2500 kg/ha, preemergence): 9.0 | ECHORC herbicidal rating ([1]; 0.0320 kg/ha, preemergence): 3.0 | ECHORC herbicidal rating ([1]; 0.0620 kg/ha, preemergence): 4.0 | ECHORC herbicidal rating ([1]; 0.1250 kg/ha, preemergence): 5.0 | ECHORC herbicidal rating ([1]; 0.2500 kg/ha, preemergence): 7.0 | SAGPY herbicidal rating (Sagittaria pygmaea, L.; 0.0320 kg/ha, preemergence): 0.0 | SAGPY herbicidal rating (Sagittaria pygmaea, L.; 0.0620 kg/ha, preemergence): 0.0 | SAGPY herbicidal rating (Sagittaria pygmaea, L.; 0.1250 kg/ha, preemergence): 3.0 | MOOVA herbicidal rating ([2]; 0.0320 kg/ha): 7.0 | MOOVA herbicidal rating ([2]; 0.0620 kg/ha): 7.0 | MOOVA herbicidal rating ([2]; 0.1250 kg/ha): 9.0 | MOOVA herbicidal rating ([2]; 0.2500 kg/ha): 9.0

CC(=O)OCCSC(SCCOC(C)=O)c1nsc2ccc(-n3c(=O)cc(C(F)(F)F)n(C)c3=O)cc12 [Example 418, 1,2-Benzisothiazole-3-carboxaldehyde, 5-[3,6-dihydro-3-methyl-2,6-dioxo-4-(trifluoromethyl)-1(2H)-pyrimidinyl]-, 3-[bis(2-hydroxyethyl)dithioacetal], diacetate (diester)]
CYPIR (Cyperus iria; [4]): 0.0 | CYPIR (Cyperus iria; [5]): 0.0 | CYPIR (Cyperus iria; [6]): 0.0 | CYPSE [3, 4]: 0.0 | CYPSE [3, 6]: 0.0 | ECHORC [1, 4]: 0.0 | ECHORC [1, 5]: 1.0 | ECHORC [1, 6]: 3.0 | MOOVA ([2]; 0.0620 kg/ha): 0.0 | MOOVA ([2]; 0.1250 kg/ha): 0.0 | MOOVA ([2]; 0.2500 kg/ha): 0.0

CC(C)N(C(C)C)S(=O)(=O)NC(=O)C(C)(C)c1nsc2ccc(-n3c(=O)cc(C(F)(F)F)n(C)c3=O)cc12 [Example 511, 1,2-Benzisothiazole-3-acetamide, 5-[3,6-dihydro-3-methyl-2,6-dioxo-4-(trifluoromethyl)-1(2H)-pyrimidinyl]-N-(diisopropylsulfamoyl)-alpha, alpha-dimethyl-]
CYPIR herbicidal rating (Cyperus iria; 0.0320 kg/ha, preemergence): 0.0 | CYPIR herbicidal rating (Cyperus iria; 0.0620 kg/ha, preemergence): 0.0 | CYPIR herbicidal rating (Cyperus iria; 0.1250 kg/ha, preemergence): 2.0 | CYPIR herbicidal rating (Cyperus iria; 0.2500 kg/ha, preemergence): 7.0 | CYPSE herbicidal rating ([3]; 0.0320 kg/ha, preemergence): 0.0 | CYPSE herbicidal rating ([3]; 0.0620 kg/ha, preemergence): 0.0 | CYPSE herbicidal rating ([3]; 0.1250 kg/ha, preemergence): 3.0 | CYPSE herbicidal rating ([3]; 0.2500 kg/ha, preemergence): 3.0 | ECHORC herbicidal rating ([1]; 0.0320 kg/ha, preemergence): 0.0 | ECHORC herbicidal rating ([1]; 0.0620 kg/ha, preemergence): 2.0 | ECHORC herbicidal rating ([1]; 0.1250 kg/ha, preemergence): 5.0 | ECHORC herbicidal rating ([1]; 0.2500 kg/ha, preemergence): 7.0 | SAGPY herbicidal rating (Sagittaria pygmaea, L.; 0.0320 kg/ha, preemergence): 0.0 | SAGPY herbicidal rating (Sagittaria pygmaea, L.; 0.0620 kg/ha, preemergence): 0.0 | SAGPY herbicidal rating (Sagittaria pygmaea, L.; 0.1250 kg/ha, preemergence): 0.0 | SAGPY herbicidal rating (Sagittaria pygmaea, L.; 0.2500 kg/ha, preemergence): 7.0

CC(=O)OCCOC(=O)COc1ccc(C)cc1-c1nsc2ccc(-n3c(=O)cc(C(F)(F)F)n(C)c3=O)cc12 [Example 578, Acetic acid, {{2-{5-[3,6-dihydro-3-methyl-2,6-dioxo-4-(trifluoromethyl)-1(2H)-pyrimidinyl]-1,2-benzisothiazol-3-yl}-p-tolyl}oxy}-, 2-hydroxyethyl ester, acetate (ester)]
herbicidal effect rating, CYPIR (Cyperus iria; [7]): 4.0 | herbicidal effect rating, CYPIR (Cyperus iria; [8]): 5.0 | herbicidal effect rating, CYPIR (Cyperus iria; [9]): 5.0 | herbicidal effect rating, CYPIR (Cyperus iria; [10]): 7.0 | herbicidal effect rating, CYPSE [3, 7]: 3.0 | herbicidal effect rating, CYPSE [3, 8]: 6.0 | herbicidal effect rating, CYPSE [3, 9]: 6.0 | herbicidal effect rating, CYPSE [3, 10]: 9.0 | herbicidal effect rating, ECHORC [1, 7]: 5.0 | herbicidal effect rating, ECHORC [1, 8]: 6.0 | herbicidal effect rating, ECHORC [1, 9]: 7.0 | herbicidal effect rating, ECHORC [1, 10]: 9.0 | herbicidal effect rating, SAGPY (Sagittaria pygmaea, L.; [7]): 3.0 | herbicidal effect rating, SAGPY (Sagittaria pygmaea, L.; [8]): 6.0 | herbicidal effect rating, SAGPY (Sagittaria pygmaea, L.; [9]): 6.0 | herbicidal effect rating, SAGPY (Sagittaria pygmaea, L.; [10]): 9.0

Cc1ccc(OCC(=O)NS(=O)(=O)CCl)c(-c2nsc3ccc(-n4c(=O)cc(C(F)(F)F)n(C)c4=O)cc23)c1 [Example 343]
herbicidal effect rating, CYPIR (Cyperus iria; [11]): 0.0 | herbicidal effect rating, CYPIR (Cyperus iria; [12]): 0.0 | herbicidal effect rating, CYPIR (Cyperus iria; [13]): 0.0 | herbicidal effect rating, CYPIR (Cyperus iria; [14]): 6.0 | herbicidal effect rating, CYPSE [3, 11]: 0.0 | herbicidal effect rating, CYPSE [3, 12]: 3.0 | herbicidal effect rating, CYPSE [3, 13]: 4.0 | herbicidal effect rating, CYPSE [3, 14]: 6.0 | herbicidal effect rating, ECHORC [1, 11]: 3.0 | herbicidal effect rating, ECHORC [1, 12]: 6.0 | herbicidal effect rating, ECHORC [1, 13]: 7.0 | herbicidal effect rating, ECHORC [1, 14]: 9.0 | herbicidal effect rating, SAGPY (Sagittaria pygmaea, L.; [11]): 0.0 | herbicidal effect rating, SAGPY (Sagittaria pygmaea, L.; [12]): 0.0 | herbicidal effect rating, SAGPY (Sagittaria pygmaea, L.; [13]): 0.0 | herbicidal effect rating, SAGPY (Sagittaria pygmaea, L.; [14]): 3.0
